Experimental data reported in patent US10457707B2, “Substituted urea depsipeptide analogs as activators of the CLPP endopeptidase” (priority 2015, dated 2019).
Values after ≈ are worked out from the molar mass of the structure shown. Read-outs that look alike come from different tables or passages of the source. *1 amine or outer side, *2 acyl side, *3 side chain or, on linkers, in order; H or OH if unused. Where a SMILES comes first, the peptide text is derived from it. Bridges are numbered along the chain shown (N, C = ends). [ ]: non-standard residue; d: D form. The star is where a group is joined. ξ: configuration not given here. Piperazine(2S-CO,4-Me) = CN1CCN[C@H](C(=O)O)C1; NH(1,3-benzodioxol-5-yl) = c1cc2c(cc1N*)OCO2; Phe(3,5-F2) = N[C@@H](Cc1cc(F)cc(F)c1)C(=O)O; NH(1-Me-indolin-5-yl) = CN1CCc2cc(N*)ccc21; NMepT = CN[C@H](C(=O)O)[C@@H](C)OP(=O)(O)O; NH(4-OCF3-phenyl) = FC(F)(F)Oc1ccc(N*)cc1; Morpholine(3S-CO) = O=C(O)[C@@H]1COCCN1; Pro(4S-Me) = C[C@@H]1CN[C@H](C(=O)O)C1; NH(4-Cl-2-F-phenyl) = Fc1cc(Cl)ccc1N*; Pro(4R-Me) = C[C@H]1CN[C@H](C(=O)O)C1; NMeaThr = CN[C@H](C(=O)O)[C@H](C)O; Hyp = O=C(O)[C@@H]1C[C@@H](O)CN1; NH(4-Et-phenyl) = CCc1ccc(N*)cc1; NMeT = CN[C@H](C(=O)O)[C@@H](C)O; NH(4-Me-phenyl) = Cc1ccc(N*)cc1; aThr = C[C@H](O)[C@H](N)C(=O)O; Pip = O=C(O)[C@@H]1CCCCN1; NMeA = CN[C@@H](C)C(=O)O; CO = O=C([*:1])[*:2]; ξP = O=C(O)C1CCCN1

Assays:
Assay type in all cases: cell-based
[1] = test system: Bacillus subtilis, ATCC 23857; test: Minimal inhibitory concentration assay (microbroth dilution)
Outline: (§1)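 Compound is serially diluted two-fold in the appropriate broth, and bacterial inoculum at about 10^5 cfu/mL is added so the highest final concentration is 200 μM. Plates stay overnight at 37 °C under aerobic conditions before growth is scored by eye.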

[2] = test system: Staphylococcus aureus, NRS70; test: as above
Outline: as §1

[3] = test system: Staphylococcus aureus, ATCC 29213; test: as above; conditions: ATCC29213, read-out: Minimal Inhibitory Concentrations S. aureus ATCC 29213
Outline: as §1

[4] = Cytotoxicity assay (CellTiter-Glo cell viability, 72 hours); conditions: African green monkey
Outline: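 Viability measured by CellTiter-Glo luminescence after 72-hour compound exposure (serial dilutions, DMSO control) of Vero monolayers seeded at 5000 cells/well in 10% FBS DMEM. IC50 values are the range of two biologically independent experiments, each run in duplicate.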

[5] = test system: Streptococcus pyogenes, ATCC 700294; test: Minimal inhibitory concentration assay (microbroth dilution)
Outline: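 Plates with two-fold compound dilution series in broth were incubated overnight, aerobically, at 37° C, following CLSI microdilution guidance.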

[6] = Bacillus subtilis, ATCC23857, read-out: Minimal Inhibitory Concentrations B. subtilis ATCC 23857
[7] = Staphylococcus aureus, NRS70, read-out: Minimal Inhibitory Concentrations S. aureus NRS70
[8] = Vero cells, 72 hours, growth inhibition, read-out: Cytotoxicity IC50
[9] = Streptococcus pyogenes, ATCC700294, read-out: Minimal Inhibitory Concentrations S. pyogenes ATCC 700294
[10] = Bacillus subtilis, ATCC23857; read-out: Minimal Inhibitory Concentrations B. subtilis ATCC 23857
[11] = Staphylococcus aureus, NRS70; read-out: Minimal Inhibitory Concentrations S. aureus NRS70
[12] = Streptococcus pyogenes, ATCC700294; read-out: Minimal Inhibitory Concentrations S. pyogenes ATCC 700294

| Compound | MIC [1, 6] | MIC [2, 7] | MIC [3] | IC50 at 72 h [4, 8] | MIC [5, 9] | MIC [1, 10] | MIC [2, 11] | IC50 at 72 h [4] | MIC [5, 12] |
| --- | --- | --- | --- | --- | --- | --- | --- | --- | --- |
| C[C@@H]1C[C@H]2C(=O)O[C@@H](C)[C@H](NC(=O)[C@H](Cc3cc(F)cc(F)c3)NC(=O)Nc3ccc4c(c3)CCN4C)C(=O)N3CCC[C@H]3C(=O)N3CCOC[C@H]3C(=O)N[C@@H](C)C(=O)N2C1 [Compound 312, (S)-3-(3,5-difluorophenyl)-2-(3-(1-methylindolin-5-yl)ureido)-N-((6aS,12S,13S,15aS,17R,21S,23aS)-13,17,21-trimethyl-6,11,15,20,23-pentaoxooctadecahydro-6H,11H,15H-[1,4]oxazino[3,4-i]dipyrrolo[2,1-c:2′,1′-l][1]oxa[4,7,10,13]tetraazacyclo-hexadecin-12-yl)propanamide] ({NH(1-Me-indolin-5-yl)-CO}-[Phe(3,5-F2)][aThr]P[Morpholine(3S-CO)]A[Pro(4R-Me)]; ester 2-C) | 0.313 µM (≈ 0.266 µg/mL) | 0.078 µM (≈ 0.0664 µg/mL) | 0.156 µM (≈ 0.133 µg/mL) | 2.87 µM | 0.156 µM (≈ 0.133 µg/mL) |  |  |  |  |
| C[C@@H]1C[C@H]2C(=O)OC[C@H](NC(=O)[C@H](Cc3cc(F)cc(F)c3)NC(=O)Nc3ccc4c(c3)OCO4)C(=O)N3CCC[C@H]3C(=O)N3CCCC[C@H]3C(=O)N[C@@H](C)C(=O)N2C1 [Compound 195, (S)-2-(3-(benzo[d][1,3]dioxol-5-yl)ureido)-3-(3,5-difluorophenyl)-N-((2R,6S,8aS,14aS,20S,23aS)-2,6-dimethyl-5,8,14,19,23-pentaoxooctadecahydro-1H,5H,14H,19H-pyrido[2,1-i]dipyrrolo[2,1-c:2′,1′-l][1]oxa[4,7,10,13]tetraazacyclohexadecin-20-yl)propanamide] |  |  | 0.6 µM (≈ 0.494 µg/mL) |  |  | 0.3 µM (≈ 0.247 µg/mL) | 0.6 µM (≈ 0.494 µg/mL) | 84.1 ± 8.3 µM | 0.3 µM (≈ 0.247 µg/mL) |
| Cc1ccc(NC(=O)N[C@@H](Cc2cc(F)cc(F)c2)C(=O)N[C@@H]2C(=O)N3CCC[C@H]3C(=O)N(C)[C@@H]([C@@H](C)OP(=O)(O)O)C(=O)N[C@@H](C)C(=O)N3C[C@@H](C)C[C@H]3C(=O)O[C@H]2C)cc1 [Compound 188, (R)-1-((2S,6S,9S,11aS,17S,18S,20aS)-17-((S)-3-(3,5-difluorophenyl)-2-(3-(p-tolyl)ureido)propanamido)-2,6,10,18-tetramethyl-5,8,11,16,20-pentaoxohexadecahydro-1H,5H,16H-dipyrrolo[2,1-c:2′,1′-l][1]oxa[4,7,10,13]tetraazacyclohexadecin-9-yl)ethyl dihydrogen phosphate] ({NH(4-Me-phenyl)-CO}-[Phe(3,5-F2)][aThr]P[NMepT]A[Pro(4S-Me)]; ester 2-C) | 13 µM | 25 µM | 25 µM | > 100 µM | 50 µM |  |  |  |  |
| C[C@@H]1C[C@H]2C(=O)O[C@@H](C)[C@H](NC(=O)[C@H](Cc3cc(F)cc(F)c3)NC(=O)Nc3ccc4c(c3)CCN4C)C(=O)N3C[C@H](O)C[C@H]3C(=O)N3CCOC[C@H]3C(=O)N[C@@H](C)C(=O)N2C1 [Compound 315, (S)-3-(3,5-difluorophenyl)-N-((6aS,8R,12S,13S,15aS,17R,21S,23aS)-8-hydroxy-13,17,21-trimethyl-6,11,15,20,23-pentaoxooctadecahydro-6H,11H,15H-[1,4]oxazino[3,4-i]dipyrrolo[2,1-c:2′,1′-l][1]oxa[4,7,10,13]tetraazacyclohexadecin-12-yl)-2-(3-(1-methylindolin-5-yl)ureido)propanamide] ({NH(1-Me-indolin-5-yl)-CO}-[Phe(3,5-F2)][aThr][Hyp][Morpholine(3S-CO)]A[Pro(4R-Me)]; ester 2-C) | 20 µM (≈ 17.3 µg/mL) | 5 µM (≈ 4.33 µg/mL) | 5 µM (≈ 4.33 µg/mL) | > 100 µM | 0.625 µM (≈ 0.542 µg/mL) |  |  |  |  |
| C[C@@H]1C[C@H]2C(=O)O[C@@H](C)[C@H](NC(=O)[C@H](Cc3cc(F)cc(F)c3)NC(=O)Nc3ccc4c(c3)OCO4)C(=O)N3C[C@H](O)C[C@H]3C(=O)N3CCOC[C@H]3C(=O)N[C@@H](C)C(=O)N2C1 [Compound 319, (S)-2-(3-(benzo[d][1,3]dioxol-5-yl)ureido)-3-(3,5-difluorophenyl)-N-((6aS,8R,12S,13S,15aS,17R,21S,23aS)-8-hydroxy-13,17,21-trimethyl-6,11,15,20,23-pentaoxooctadecahydro-6H,11H,15H-[1,4]oxazino[3,4-i]dipyrrolo[2,1-c:2′,1′-l][1]oxa[4,7,10,13]tetraazacyclo-hexadecin-12-yl)propanamide] ({NH(1,3-benzodioxol-5-yl)-CO}-[Phe(3,5-F2)][aThr][Hyp][Morpholine(3S-CO)]A[Pro(4R-Me)]; ester 2-C) |  |  | 2.5 µM (≈ 2.14 µg/mL) |  |  | 10 µM (≈ 8.56 µg/mL) | 5 µM (≈ 4.28 µg/mL) | > 100 µM | 0.313 µM (≈ 0.268 µg/mL) |
| C[C@H]1C[C@H]2C(=O)O[C@@H](C)[C@H](NC(=O)[C@H](Cc3cc(F)cc(F)c3)NC(=O)Nc3ccc(OC(F)(F)F)cc3)C(=O)N3CCC[C@H]3C(=O)N(C)[C@@H]([C@H](C)O)C(=O)N[C@@H](C)C(=O)N2C1 [Compound 203, (S)-3-(3,5-difluorophenyl)-N-((2S,6S,9S,11aS,17S,18S,20aS)-9-((S)-1-hydroxyethyl)-2,6,10,18-tetramethyl-5,8,11,16,20-pentaoxohexadecahydro-1H,5H,16H-dipyrrolo[2,1-c:2′,1′-l][1]oxa[4,7,10,13]tetraazacyclohexadecin-17-yl)-2-(3-(4-(trifluoromethoxy)phenyl)ureido)propanamide] ({NH(4-OCF3-phenyl)-CO}-[Phe(3,5-F2)][aThr]P[NMeaThr]A[Pro(4S-Me)]; ester 2-C) |  |  | 0.098 µM (≈ 0.0864 µg/mL) |  |  | 0.098 µM (≈ 0.0864 µg/mL) | 0.049 µM (≈ 0.0432 µg/mL) | 25.4 ± 1.8 µM | 0.195 µM (≈ 0.172 µg/mL) |
| C[C@@H]1C[C@H]2C(=O)O[C@@H](C)[C@H](NC(=O)[C@H](Cc3cc(F)cc(F)c3)NC(=O)Nc3ccc(Cl)cc3F)C(=O)N3CCC[C@H]3C(=O)N3CCCC[C@H]3C(=O)N[C@@H](C)C(=O)N2C1 [Compound 307, (S)-2-(3-(4-chloro-2-fluorophenyl)ureido)-3-(3,5-difluorophenyl)-N-((2R,6S,8aS,14aS,20S,21S,23aS)-2,6,21-trimethyl-5,8,14,19,23-pentaoxooctadecahydro-1H,5H,14H,19H-pyrido[2,1-i]dipyrrolo[2,1-c:2′,1′-l][1]oxa[4,7,10,13]tetraazacyclo-hexadecin-20-yl)propanamide] ({NH(4-Cl-2-F-phenyl)-CO}-[Phe(3,5-F2)][aThr]P[Pip]A[Pro(4R-Me)]; ester 2-C) |  |  | 0.039 µM (≈ 0.033 µg/mL) |  |  | 0.039 µM (≈ 0.033 µg/mL) | 0.039 µM (≈ 0.033 µg/mL) | 9.5 ± 0.8 µM | 0.156 µM (≈ 0.132 µg/mL) |
| CCc1ccc(NC(=O)N[C@@H](Cc2cc(F)cc(F)c2)C(=O)N[C@@H]2C(=O)N3CCC[C@H]3C(=O)N(C)[C@@H]([C@@H](C)O)C(=O)N[C@@H](C)C(=O)N3C[C@H](C)C[C@H]3C(=O)O[C@H]2C)cc1 [Compound 42, (S)-3-(3,5-difluorophenyl)-2-(3-(4-ethylphenyl)ureido)-N-((2R,6S,9S,11aS,17S,18S,20aS)-9-((R)-1-hydroxyethyl)-2,6,10,18-tetramethyl-5,8,11,16,20-pentaoxohexadecahydro-1H,5H,16H-dipyrrolo[2,1-c:2′,1′-l][1]oxa[4,7,10,13]tetraazacyclohexadecin-17-yl)propanamide] ({NH(4-Et-phenyl)-CO}-[Phe(3,5-F2)][aThr]P[NMeT]A[Pro(4R-Me)]; ester 2-C) |  |  | 0.05 µM (≈ 0.0413 µg/mL) |  |  | 0.01 µM (≈ 0.00826 µg/mL) | 0.02 µM (≈ 0.0165 µg/mL) | 24.9 ± 2.6 µM | 0.05 µM (≈ 0.0413 µg/mL) |
| C[C@@H]1NC(=O)[C@H](C)N(C)C(=O)[C@@H]2CCCN2C(=O)[C@@H](NC(=O)[C@H](Cc2ccccc2)NC(=O)Nc2ccc(OC(F)(F)F)cc2)COC(=O)C2CCCN2C1=O (stereo partly drawn) [Compound 213, (2S)-3-phenyl-2-(3-(4-(trifluoromethoxy)phenyl)ureido)-N-((6S,9S,11aS,17S)-6,9,10-trimethyl-5,8,11,16,20-pentaoxohexadecahydro-1H,5H,16H-dipyrrolo[2,1-c:2′,1′-l][1]oxa[4,7,10,13]tetraazacyclohexadecin-17-yl)propanamide] ({NH(4-OCF3-phenyl)-CO}-FSP[NMeA]A[ξP]; ester 2-C) |  |  | 3.12 µM (≈ 2.46 µg/mL) |  |  | < 0.2 µM | 0.78 µM (≈ 0.614 µg/mL) | 51.8 ± 1 µM | 0.39 µM (≈ 0.307 µg/mL) |
| C[C@@H]1C[C@H]2C(=O)OC[C@H](NC(=O)[C@H](Cc3cc(F)cc(F)c3)NC(=O)Nc3ccc(Cl)cc3F)C(=O)N3CCC[C@H]3C(=O)N3CCN(C)C[C@H]3C(=O)N[C@@H](C)C(=O)N2C1 [Compound 330, (S)-2-(3-(4-chloro-2-fluorophenyl)ureido)-3-(3,5-difluorophenyl)-N-((6aS,12S,15aS,17R,21S,23aS)-2,17,21-trimethyl-6,11,15,20,23-pentaoxooctadecahydro-2H,6H,11H,15H-pyrazino[2,1-i]dipyrrolo[2,1-c:2′,1′-l][1]oxa[4,7,10,13]tetraazacyclohexadecin-12-yl)propanamide] ({NH(4-Cl-2-F-phenyl)-CO}-[Phe(3,5-F2)]SP[Piperazine(2S-CO,4-Me)]A[Pro(4R-Me)]; ester 2-C) |  |  | 0.078 µM (≈ 0.0661 µg/mL) |  |  | < 0.02 µM | 0.078 µM (≈ 0.0661 µg/mL) | > 50 µM | 0.078 µM (≈ 0.0661 µg/mL) |
